Assay [1] concerns the target T1, MBP-SUFU-FL (Homo sapiens, UniProt Q9UMX1).
T1 construct: containing residues 32–483 of human SUFU and a C-terminal hexahistidine tag; hexahistidine tag (C); made in house; host or cells: Escherichia coli JM109 (DE3)
The assay is described as follows: Microscale thermophoresis with FAM-GLI1p, MBP-SUFU-FL. Particulars: binding to MBP-SUFU-FL; 50 nM FAM-GLI1p. On the procedure:
(§1) A 5-FAM-labelled peptide (FAM-GLI1p) comprising residues 115–131 of GLI1 (Supplementary Table S1b) was synthesized by Pepceuticals Ltd. A titration series of each recombinant protein was prepared by serial 1:1 dilutions in MST buffer (50 mM Tris–HCl pH 7.6, 150 mM NaCl, 10 mM MgCl2, 0.05% Tween-20) and mixed in a 1:1 ratio with FAM-GLI1p to give final concentrations of 50 nM FAM-GLI1p with MBP-SUFU constructs in the ranges 14.2–29 070 and 54–110 500 nM. Reactions were aspirated into glass capillaries and the thermophoretic movement of FAM-GLI1p was monitored using a Monolith NT.115 instrument (NanoTemper Technologies; Wienken et al., 2010[▶]), with a laser on for 30 s and off for 5 s and a laser power/voltage of 20% for MBP-SUFU-FL and the MBP-SUFU-FL mutants, 40% for MBP-SUFU-Δ and 80% for MBP-SUFU-SH. Fluorescence was measured before laser heating (F Cold) and after 30 s of laser-on time (F Hot). The normalized fluorescence F Hot/F Cold reflects the concentration ratio of labelled molecules. F Hot/F Cold was plotted directly and multiplied by a factor of […], yielding a relative change in fluorescence per thousand. K d was calculated from three independent thermophoresis measurements using NanoTemper software (NanoTemper Technologies).
(MST reads how a fluorescent partner responds to local heating, with and without ligand.)

The subject of assay [2] is MBP-SUFU-SH. The assay is described as follows: Microscale thermophoresis with FAM-GLI1p, MBP-SUFU-SH. More on the design: species or system human. Particulars: binding to MBP-SUFU-SH; 50 nM FAM-GLI1p. On the procedure:
as §1

Assay [3] concerns the target T2, MBP-SUFU-Δ (Homo sapiens, UniProt Q9UMX1, DEL285-359/L360P/P281R/P282G/R280S/S279P).
T2 construct: subcloning different SUFU32–483 variants into vector pLJMBP4c; His tag (as in MBP-SUFU-FL; purified on HisTrap) (C); made in house; host or cells: Escherichia coli JM109 (DE3)
The assay is described as follows: Microscale thermophoresis with FAM-GLI1p, MBP-SUFU-Δ. To be noted: binding to MBP-SUFU-Δ; 50 nM FAM-GLI1p. The method, then:
as §1

For assay [4], the system named is Hh pathway, Sufu −/− MEFs with SUFU-Δ. The assay is described as follows: Hh pathway reactivation in Sufu −/− MEFs expressing SUFU-Δ. Particulars: 48–72 h, luciferase. Type of assay: cell-based, mouse. On the procedure: (§2) Sufu ^−/− mouse embryonic fibroblast (MEF) cells (Svärd et al., 2006[▶]) were transfected with a mixture of p8x3′Gli-BS LucII or p8x3′Gli-mBS LucII reporter constructs (Sasaki et al., 1997[▶]; generous gifts from Hiroshi Sasaki) together with pRL-SV40 (Promega) internal control using Lipofectamine LTX with Plus reagent (Invitrogen) according to the manufacturer’s instructions. Following transfection, Sufu ^−/− MEF cells were grown until the culture reached confluency (24–48 h) and the cells were then switched to low-serum medium (0.5% FBS) with 100–200 nM SAG (kindly provided by Jan Bergman, Karolinska Institutet), 10 µM purmorphamine (Calbiochem) or Shh conditioned medium (1:4) and grown for an additional 48–72 h. Cell lysis and luciferase activity measurements were performed using a Dual Luciferase Activity Assay Kit (Promega). For statistical evaluation of reporter gene assays, a one-tailed paired Student’s t-test was used. All activity measurements were performed at least three times in independent experiments.

The subject of assay [5] is Hh pathway, Sufu −/− MEFs with SUFU-FL. The assay is described as follows: Hh pathway reactivation in Sufu −/− MEFs expressing SUFU-FL. Type of assay: cell-based, mouse. To be noted: 48–72 h, luciferase. The method, then:
as §2

The subject of assay [6] is Hh pathway, Sufu −/− MEFs with SUFU-SH. Kind of assay: Hh pathway reactivation in Sufu −/− MEFs expressing SUFU-SH. In kind it is cell-based, mouse. To be noted: 48–72 h, luciferase. On the procedure:
as §2

For assay [7], the system named is Hh pathway, Sufu −/− MEFs with SUFU-IDRfly. The assay is described as follows: Hh pathway reactivation in Sufu −/− MEFs expressing SUFU-IDRfly. In kind it is cell-based, mouse. To be noted: SAG 100–200 nM, 48–72 h, luciferase. On the procedure: as §2
Assay [8] deals with T1, MBP-SUFU-FL. Kind of assay: HDX protection of MBP-SUFU-FL by GLI peptides. In kind it is binding. On the procedure:
To compare amide HDX kinetics between MBP-SUFU-FL and MBP-SUFU-Δ, 4 µl of each protein (both at 11 mg ml^−1 in 50 mM Na HEPES pH 7.0, 50 mM NaCl, 5 mM β-mercaptoethanol, 1.5 mM maltose) was mixed with 13 µl deuterated buffer with the same ionic composition as the protein sample. For MBP-SUFU-FL–Gli3p interaction experiments, 45 µl MBP-SUFU-FL (11 mg ml^−1) was mixed with 5 µl Gli3p (6 mM; a 5.5-fold excess) and incubated for 1 h. In the latter case, exchange was initiated by mixing 4 µl MBP-SUFU-FL–Gli3p with 13 µl deuterated buffer with the same ionic composition as the sample. Each reaction was stopped by adding 9 µl quenching solution (4 M urea, 50 mM TCEP, 1% TFA) and flash-freezing in liquid N2. Deuteration reactions were incubated for 60, 300, 600 and 1800 s for the MBP-SUFU-FL and MBP-SUFU-Δ experiments and 300, 600 and 1800 s for the MBP-SUFU-FL–Gli3p interaction experiments (at 4°C, in triplicate). A 24 h incubation was used as a fully deuterated sample for back-exchange correction.
Samples were analyzed in a semi-automated HDX-MS system (Biomotif AB, Sweden) in which manually injected samples were automatically digested, cleaned and separated at 1.0°C. […]

[9] abbreviates: purmorphamine 10 µM, p ≤ 0.05, n = 5.

Where a SMILES comes first, the peptide text is derived from it. The star is where a group is joined. 5FAM = O=C1OC2(c3ccc(O)cc3Oc3cc(O)ccc32)c2ccc(C(=O)*)cc21

T1 sequence (Q9UMX1 32-483, other chains not shown): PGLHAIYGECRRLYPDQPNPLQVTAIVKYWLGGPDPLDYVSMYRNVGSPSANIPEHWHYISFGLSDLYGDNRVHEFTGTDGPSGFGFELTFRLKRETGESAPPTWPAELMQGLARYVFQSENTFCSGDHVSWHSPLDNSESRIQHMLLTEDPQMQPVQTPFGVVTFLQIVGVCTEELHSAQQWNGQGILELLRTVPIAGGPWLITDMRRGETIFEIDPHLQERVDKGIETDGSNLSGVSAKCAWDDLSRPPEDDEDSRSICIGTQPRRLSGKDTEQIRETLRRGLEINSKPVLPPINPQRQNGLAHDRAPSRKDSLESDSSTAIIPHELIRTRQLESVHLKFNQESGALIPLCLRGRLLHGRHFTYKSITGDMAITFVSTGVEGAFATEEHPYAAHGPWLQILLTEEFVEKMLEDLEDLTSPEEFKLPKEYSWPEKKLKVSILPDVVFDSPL
T2 sequence (Q9UMX1 with tags, fused parts or gaps S279P/R280S/P281R/P282G/DEL285-359/L360P limits assumed, other chains not shown): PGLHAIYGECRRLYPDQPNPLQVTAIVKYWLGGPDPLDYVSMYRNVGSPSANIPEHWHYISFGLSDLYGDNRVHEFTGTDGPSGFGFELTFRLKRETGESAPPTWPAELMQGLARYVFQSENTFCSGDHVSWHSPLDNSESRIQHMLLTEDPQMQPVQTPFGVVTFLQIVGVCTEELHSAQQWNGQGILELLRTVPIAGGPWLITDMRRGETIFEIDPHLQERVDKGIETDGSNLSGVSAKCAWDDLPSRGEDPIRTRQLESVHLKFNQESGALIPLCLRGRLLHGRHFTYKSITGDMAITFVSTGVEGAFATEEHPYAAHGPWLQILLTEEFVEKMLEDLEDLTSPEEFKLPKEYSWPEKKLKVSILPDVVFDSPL

For the compound `CC[C@H](C)[C@H](NC(=O)[C@H](CO)NC(=O)[C@H](CC(C)C)NC(=O)[C@H](Cc1c[nH]cn1)NC(=O)CNC(=O)[C@H](Cc1ccc(O)cc1)NC(=O)[C@H](CO)NC(=O)CNC(=O)CNC(=O)[C@@H]1CCCN1C(=O)[C@H](CO)NC(=O)[C@@H](NC(=O)c1ccc2c(c1)C(=O)OC21c2ccc(O)cc2Oc2cc(O)ccc21)[C@@H](C)O)C(=O)NCC(=O)N[C@H](C(=O)N[C@@H](CCSC)C(=O)N[C@@H](CO)C(=O)N1CCC[C@H]1C(=O)O)[C@@H](C)O` [FAM-GLI1p] (5FAM-TSPGGSYGHLSIGTMSP-OH; C-terminus assumed), the “thermophoretic movement of the peptide on binding” value in assay [1] was “increased the rate of movement in the thermophoretic gradient”; in assay [2], “decreased it”; in assay [3], “decreased it”.
Take `c1ccc2c(Oc3nc(Nc4ccc(N5CCOCC5)cc4)c4ncn(C5CCCCC5)c4n3)cccc2c1` [Purmorphamine]: the pathway reactivation entry is “the same disparate effects on SUFU-FL and SUFU-Δ repressive function” in assay [4] (setting [9]); “Lack of Hh pathway reactivation” in assay [4] (purmorphamine 10 µM, p ≤ 0.05, n = 5, listed as purmorphamine); “the same disparate effects on SUFU-FL and SUFU-Δ repressive function” in assay [5] (setting [9]); “Lack of Hh pathway reactivation” in assay [6] (purmorphamine 10 µM).
As to `CNC1CCC(N(Cc2cccc(-c3ccncc3)c2)C(=O)c2sc3ccccc3c2Cl)CC1` (stereo not shown) [SAG], the pathway reactivation entry in assay [4] (SAG 100–200 nM, p ≤ 0.005, n = 10) is reported as “failed to reactivate the pathway”; in assay [5] (SAG 100–200 nM) it was “overrode repression by the full-length protein”; in assay [7], “repression could not be relieved”; in assay [6] (SAG 100–200 nM, p ≤ 0.01, n = 4), “failed to reactivate the pathway”.
For the compound “GLI3p-SHC: GLI3 peptide that terminates at His336; residues 328–336 (SSASGSYGH)”, the “protection of MBP-SUFU-FL from deuteration (HDX)” value in assay [8] (GLI3 peptide that terminates at His336, data not shown) is “unable to protect MBP-SUFU-FL from deuteration”.
Consider “GLI3p: corresponding peptide from human GLI3; residues 328–344 (SSASGSYGHLSASAISP)”, for which the “protection of MBP-SUFU-FL from deuteration (HDX)” value in assay [8] (Gli3p 5.5-fold excess, 1 h pre-incubation, 300, 600 and 1800 s exchange at 4°C, in triplicate, LC-MS) was “more protected from exchange in the presence of the peptide”.

Source of the values: paper PMC3852661, “Structural basis of SUFU–GLI interaction in human Hedgehog signalling regulation” (Acta Crystallographica Section D: Biological Crystallography, 2013).
